This passage reports inhibition results from article PMC9927415, “Tyrosine Kinase Inhibitors Display Potent Activity against Cryptosporidium parvum” (Microbiology Spectrum, 2022).

SMILES strings stand for the structures.

By inhibition is commonly meant the change of the read-out against control, counted positive when it falls.

Common to all, as to test: KINOMEscan competitive binding
In assay [1] the target is T1, TRKA (Homo sapiens, UniProt P04629).
T1 construct: purchased DiscoverX (KINOMEscan)
The conditions noted are these: n=1, read-out: Percent inhibition, TRKA.

Assay [2] concerns the target T2, RIPK2 (Homo sapiens, UniProt O43353).
T2 construct: purchased DiscoverX (KINOMEscan)
The conditions noted are these: n=1, read-out: Percent inhibition, RIPK2.

Assay [3] deals with T3, PTK6 (Homo sapiens, UniProt Q13882).
T3 construct: purchased DiscoverX (KINOMEscan)
The following applies: n=1, read-out: Percent inhibition, PTK6.

The target in assay [4] is T4, TNK1 (Homo sapiens, UniProt Q13470).
T4 construct: purchased DiscoverX (KINOMEscan)
T4 sequence (Q13470 1-666): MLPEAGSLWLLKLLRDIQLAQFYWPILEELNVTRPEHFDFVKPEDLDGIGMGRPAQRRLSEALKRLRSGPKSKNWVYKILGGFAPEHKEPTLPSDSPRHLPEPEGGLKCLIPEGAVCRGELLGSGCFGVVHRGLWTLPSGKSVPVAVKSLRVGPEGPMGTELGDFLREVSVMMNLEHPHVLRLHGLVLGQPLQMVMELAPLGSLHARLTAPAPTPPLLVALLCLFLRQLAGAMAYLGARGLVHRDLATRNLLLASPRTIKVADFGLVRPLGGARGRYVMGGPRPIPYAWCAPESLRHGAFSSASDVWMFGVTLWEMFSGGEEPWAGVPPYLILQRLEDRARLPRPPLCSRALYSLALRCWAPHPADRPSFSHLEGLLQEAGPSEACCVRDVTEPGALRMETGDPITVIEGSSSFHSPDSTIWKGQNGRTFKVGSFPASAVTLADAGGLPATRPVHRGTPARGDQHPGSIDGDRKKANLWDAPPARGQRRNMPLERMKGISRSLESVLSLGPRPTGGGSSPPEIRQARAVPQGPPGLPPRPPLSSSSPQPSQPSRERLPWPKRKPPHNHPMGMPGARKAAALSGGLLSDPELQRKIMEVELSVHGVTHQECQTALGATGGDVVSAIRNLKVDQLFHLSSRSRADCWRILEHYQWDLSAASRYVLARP
The following applies: n=1, read-out: Percent inhibition, TNK1.

The target of assay [5] is T5, RPS6KA3(Kin.Dom.1) (Homo sapiens, UniProt P51812).
T5 construct: RPS6KA3(Kin.Dom.1); purchased DiscoverX (KINOMEscan)
The following applies: n=1, read-out: Percent inhibition, RPS6KA3(Kin.Dom.1).

Assay [6] concerns the target T6, YANK2 (Homo sapiens, UniProt Q9NY57).
T6 construct: purchased DiscoverX (KINOMEscan)
The following applies: n=1, read-out: Percent inhibition, YANK2.

Assay [7] addresses T7, TLK1 (Homo sapiens, UniProt Q9UKI8).
T7 construct: purchased DiscoverX (KINOMEscan)
T7 sequence (Q9UKI8 1-766): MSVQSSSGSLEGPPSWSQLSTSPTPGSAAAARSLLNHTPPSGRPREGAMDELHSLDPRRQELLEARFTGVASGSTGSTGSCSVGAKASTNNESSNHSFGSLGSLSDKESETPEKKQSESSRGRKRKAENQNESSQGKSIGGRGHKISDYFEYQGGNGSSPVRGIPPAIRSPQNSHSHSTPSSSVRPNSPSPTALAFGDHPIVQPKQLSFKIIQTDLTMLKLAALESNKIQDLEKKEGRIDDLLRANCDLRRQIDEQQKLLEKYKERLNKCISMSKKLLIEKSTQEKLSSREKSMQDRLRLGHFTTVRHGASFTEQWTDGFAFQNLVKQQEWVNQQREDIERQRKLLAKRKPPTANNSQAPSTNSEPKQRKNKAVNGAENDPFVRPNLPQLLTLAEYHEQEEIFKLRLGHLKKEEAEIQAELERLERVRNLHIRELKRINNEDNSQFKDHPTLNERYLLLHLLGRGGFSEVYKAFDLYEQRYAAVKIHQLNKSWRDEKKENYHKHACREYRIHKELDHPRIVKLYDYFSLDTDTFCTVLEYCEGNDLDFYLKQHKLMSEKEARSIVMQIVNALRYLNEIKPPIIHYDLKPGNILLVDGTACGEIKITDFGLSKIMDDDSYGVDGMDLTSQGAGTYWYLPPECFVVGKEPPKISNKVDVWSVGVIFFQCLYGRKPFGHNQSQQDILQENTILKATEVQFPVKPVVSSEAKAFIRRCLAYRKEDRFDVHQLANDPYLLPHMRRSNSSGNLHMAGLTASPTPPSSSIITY
The following applies: n=1, read-out: Percent inhibition, TLK1.

Assay [8] has as its target T8, PIM2 (Homo sapiens, UniProt Q9P1W9).
T8 construct: purchased DiscoverX (KINOMEscan)
The following applies: n=1, read-out: Percent inhibition, PIM2.

The target in assay [9] is T9, PAK2 (Homo sapiens, UniProt Q13177).
T9 construct: purchased DiscoverX (KINOMEscan)
The following applies: n=1, read-out: Percent inhibition, PAK2.

The target in assay [10] is T10, PHKG1 (Homo sapiens, UniProt Q16816).
T10 construct: purchased DiscoverX (KINOMEscan)
The conditions noted are these: n=1, read-out: Percent inhibition, PHKG1.

The target of assay [11] is T11, PHKG2 (Homo sapiens, UniProt P15735).
T11 construct: purchased DiscoverX (KINOMEscan)
T11 sequence (P15735 1-406): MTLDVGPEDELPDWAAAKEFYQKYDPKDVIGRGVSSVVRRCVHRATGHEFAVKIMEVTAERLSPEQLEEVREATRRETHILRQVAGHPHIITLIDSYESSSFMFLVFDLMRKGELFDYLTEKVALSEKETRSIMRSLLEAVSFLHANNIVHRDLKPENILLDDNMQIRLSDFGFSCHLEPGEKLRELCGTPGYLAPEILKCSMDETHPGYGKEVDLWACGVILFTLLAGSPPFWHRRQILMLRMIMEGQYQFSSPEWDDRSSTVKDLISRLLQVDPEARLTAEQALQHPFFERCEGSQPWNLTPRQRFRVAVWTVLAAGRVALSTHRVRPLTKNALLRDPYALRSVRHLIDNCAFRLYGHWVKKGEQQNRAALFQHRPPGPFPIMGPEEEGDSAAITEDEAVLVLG
The following applies: n=1, read-out: Percent inhibition, PHKG2.

The target of assay [12] is T12, YANK3 (Homo sapiens, UniProt Q86UX6).
T12 construct: purchased DiscoverX (KINOMEscan)
The conditions noted are these: n=1, read-out: Percent inhibition, YANK3.

In assay [13] the target is T13, SYK (Homo sapiens, UniProt P43405).
T13 construct: purchased DiscoverX (KINOMEscan)
The following applies: n=1, read-out: Percent inhibition, SYK.

T9 sequence (Q13177 whole entry): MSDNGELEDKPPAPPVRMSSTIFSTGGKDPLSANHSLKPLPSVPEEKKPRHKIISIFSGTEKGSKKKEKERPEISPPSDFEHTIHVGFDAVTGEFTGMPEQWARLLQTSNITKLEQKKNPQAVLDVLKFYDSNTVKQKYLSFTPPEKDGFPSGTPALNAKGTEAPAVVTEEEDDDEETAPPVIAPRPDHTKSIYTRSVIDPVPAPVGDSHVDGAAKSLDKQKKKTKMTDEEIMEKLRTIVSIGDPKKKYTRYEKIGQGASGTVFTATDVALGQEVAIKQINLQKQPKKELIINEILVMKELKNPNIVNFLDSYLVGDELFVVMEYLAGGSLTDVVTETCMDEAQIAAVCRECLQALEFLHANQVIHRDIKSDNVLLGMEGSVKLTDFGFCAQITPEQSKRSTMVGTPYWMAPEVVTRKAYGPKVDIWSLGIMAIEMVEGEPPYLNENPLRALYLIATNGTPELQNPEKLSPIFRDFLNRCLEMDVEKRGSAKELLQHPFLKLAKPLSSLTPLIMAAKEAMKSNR
T5 sequence (P51812 1-397 limits assumed): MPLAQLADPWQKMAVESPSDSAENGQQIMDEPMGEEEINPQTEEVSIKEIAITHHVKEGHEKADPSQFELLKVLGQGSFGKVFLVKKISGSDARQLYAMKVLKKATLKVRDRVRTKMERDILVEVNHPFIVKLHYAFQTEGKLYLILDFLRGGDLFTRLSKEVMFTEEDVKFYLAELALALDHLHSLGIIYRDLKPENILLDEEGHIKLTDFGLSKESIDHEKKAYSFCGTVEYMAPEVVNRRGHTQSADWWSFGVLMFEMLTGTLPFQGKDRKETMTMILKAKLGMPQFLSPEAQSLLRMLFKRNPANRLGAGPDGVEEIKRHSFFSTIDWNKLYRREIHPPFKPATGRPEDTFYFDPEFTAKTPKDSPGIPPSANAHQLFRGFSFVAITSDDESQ
T8 sequence (Q9P1W9 whole entry): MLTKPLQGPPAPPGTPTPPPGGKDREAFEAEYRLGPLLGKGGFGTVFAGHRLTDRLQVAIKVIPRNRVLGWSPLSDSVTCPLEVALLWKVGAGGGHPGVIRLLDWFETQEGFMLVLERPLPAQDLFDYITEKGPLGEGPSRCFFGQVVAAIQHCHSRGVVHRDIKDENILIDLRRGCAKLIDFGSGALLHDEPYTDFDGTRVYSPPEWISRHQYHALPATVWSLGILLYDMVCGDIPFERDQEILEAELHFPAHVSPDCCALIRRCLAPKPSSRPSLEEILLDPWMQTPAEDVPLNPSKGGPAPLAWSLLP
T2 sequence (O43353 whole entry): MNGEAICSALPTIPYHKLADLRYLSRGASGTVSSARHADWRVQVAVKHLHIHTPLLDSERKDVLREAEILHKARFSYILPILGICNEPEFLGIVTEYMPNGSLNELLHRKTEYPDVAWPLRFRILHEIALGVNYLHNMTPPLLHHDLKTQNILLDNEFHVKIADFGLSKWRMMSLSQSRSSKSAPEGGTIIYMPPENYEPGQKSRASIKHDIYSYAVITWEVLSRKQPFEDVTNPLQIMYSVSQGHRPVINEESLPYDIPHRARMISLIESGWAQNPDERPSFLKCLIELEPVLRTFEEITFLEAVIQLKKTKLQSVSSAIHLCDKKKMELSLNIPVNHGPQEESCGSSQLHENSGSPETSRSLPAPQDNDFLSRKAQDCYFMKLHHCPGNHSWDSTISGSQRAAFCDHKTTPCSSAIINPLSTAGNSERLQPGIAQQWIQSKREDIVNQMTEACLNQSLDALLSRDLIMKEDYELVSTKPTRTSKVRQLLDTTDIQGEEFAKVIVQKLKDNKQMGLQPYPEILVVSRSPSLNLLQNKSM
T3 sequence (Q13882 whole entry): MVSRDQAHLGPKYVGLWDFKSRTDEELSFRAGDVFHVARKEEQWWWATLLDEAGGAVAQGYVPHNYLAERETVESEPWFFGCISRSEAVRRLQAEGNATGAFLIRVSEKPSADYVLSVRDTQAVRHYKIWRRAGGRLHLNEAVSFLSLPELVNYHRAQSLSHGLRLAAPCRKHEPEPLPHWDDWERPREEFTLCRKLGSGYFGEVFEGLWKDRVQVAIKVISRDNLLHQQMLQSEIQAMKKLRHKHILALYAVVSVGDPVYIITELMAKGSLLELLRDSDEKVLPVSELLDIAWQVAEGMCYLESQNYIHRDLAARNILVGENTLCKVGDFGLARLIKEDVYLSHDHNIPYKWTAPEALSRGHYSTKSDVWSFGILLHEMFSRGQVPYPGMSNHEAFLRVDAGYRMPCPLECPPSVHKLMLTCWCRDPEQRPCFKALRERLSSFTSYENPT
T6 sequence (Q9NY57 whole entry): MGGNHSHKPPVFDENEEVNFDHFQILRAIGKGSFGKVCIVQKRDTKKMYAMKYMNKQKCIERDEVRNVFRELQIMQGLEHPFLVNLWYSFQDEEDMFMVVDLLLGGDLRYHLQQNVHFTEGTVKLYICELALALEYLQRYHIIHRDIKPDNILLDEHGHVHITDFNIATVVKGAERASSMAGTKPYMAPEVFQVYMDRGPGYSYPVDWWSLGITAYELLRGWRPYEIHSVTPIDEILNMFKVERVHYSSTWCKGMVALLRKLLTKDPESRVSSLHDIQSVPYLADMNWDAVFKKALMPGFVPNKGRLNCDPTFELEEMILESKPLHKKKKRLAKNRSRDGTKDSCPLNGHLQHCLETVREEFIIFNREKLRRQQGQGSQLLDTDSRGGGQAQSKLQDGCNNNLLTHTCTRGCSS
T12 sequence (Q86UX6 whole entry): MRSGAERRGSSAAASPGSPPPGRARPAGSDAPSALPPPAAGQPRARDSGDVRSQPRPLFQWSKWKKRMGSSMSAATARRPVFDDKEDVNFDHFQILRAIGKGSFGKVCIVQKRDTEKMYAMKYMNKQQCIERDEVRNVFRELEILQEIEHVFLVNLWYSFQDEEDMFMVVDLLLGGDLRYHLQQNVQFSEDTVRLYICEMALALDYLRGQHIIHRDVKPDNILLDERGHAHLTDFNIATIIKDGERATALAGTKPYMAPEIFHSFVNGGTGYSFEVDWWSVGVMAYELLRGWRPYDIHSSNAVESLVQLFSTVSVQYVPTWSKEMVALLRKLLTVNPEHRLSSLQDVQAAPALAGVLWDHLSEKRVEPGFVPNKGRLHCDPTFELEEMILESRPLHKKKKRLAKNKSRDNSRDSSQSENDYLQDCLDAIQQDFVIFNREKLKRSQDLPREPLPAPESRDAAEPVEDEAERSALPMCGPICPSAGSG
T10 sequence (Q16816 whole entry): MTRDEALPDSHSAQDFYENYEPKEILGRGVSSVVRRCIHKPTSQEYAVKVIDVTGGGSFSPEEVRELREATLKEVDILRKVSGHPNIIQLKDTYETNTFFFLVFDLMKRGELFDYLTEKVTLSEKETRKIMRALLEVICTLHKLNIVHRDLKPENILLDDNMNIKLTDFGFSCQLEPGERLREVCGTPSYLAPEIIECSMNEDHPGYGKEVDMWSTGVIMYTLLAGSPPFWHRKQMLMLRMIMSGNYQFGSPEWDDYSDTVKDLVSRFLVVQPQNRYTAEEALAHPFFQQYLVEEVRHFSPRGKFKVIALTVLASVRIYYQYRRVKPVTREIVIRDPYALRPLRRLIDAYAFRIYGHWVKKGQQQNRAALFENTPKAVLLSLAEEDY
T1 sequence (P04629 33-796): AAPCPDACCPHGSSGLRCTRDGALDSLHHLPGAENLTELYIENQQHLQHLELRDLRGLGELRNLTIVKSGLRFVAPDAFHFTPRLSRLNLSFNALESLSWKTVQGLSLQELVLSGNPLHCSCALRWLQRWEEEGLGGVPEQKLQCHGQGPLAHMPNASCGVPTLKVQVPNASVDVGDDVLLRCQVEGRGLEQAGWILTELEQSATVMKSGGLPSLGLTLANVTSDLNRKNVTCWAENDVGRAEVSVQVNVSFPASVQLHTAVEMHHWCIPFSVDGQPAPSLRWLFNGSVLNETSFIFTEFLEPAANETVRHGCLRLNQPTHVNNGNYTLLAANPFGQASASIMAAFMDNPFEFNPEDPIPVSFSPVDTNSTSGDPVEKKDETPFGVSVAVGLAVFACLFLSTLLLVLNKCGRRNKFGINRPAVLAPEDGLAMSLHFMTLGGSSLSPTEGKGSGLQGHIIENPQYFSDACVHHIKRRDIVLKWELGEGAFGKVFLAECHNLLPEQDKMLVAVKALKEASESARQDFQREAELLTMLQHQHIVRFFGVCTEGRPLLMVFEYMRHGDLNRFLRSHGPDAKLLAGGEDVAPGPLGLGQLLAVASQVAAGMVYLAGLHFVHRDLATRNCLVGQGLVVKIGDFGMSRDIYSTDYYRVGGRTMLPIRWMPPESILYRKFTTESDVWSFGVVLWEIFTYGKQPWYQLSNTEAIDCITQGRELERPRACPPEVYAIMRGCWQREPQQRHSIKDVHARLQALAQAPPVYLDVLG

`Cc1ccc(O)cc1Nc1ccnc(Nc2cccc(C(N)=O)c2)n1` [Compound 3]: the inhibition at 10 µM came to 0% in assay [1]; 100% in assay [2]; 100% in [3]; 80.1% in [4]; 0% in assay [5]; 0% in [6]. Also, the inhibition at 10 µM in assay [7] turned out to be 0%; in [8] it was 0%; in assay [9], 93.4%; in [10] it was 0%; in assay [11], 0%; in assay [12], 0%.
For `Clc1ccc(Nc2ncc(-c3ccccc3)s2)cc1` [Compound 10], the inhibition at 10 µM in assay [1], in [2], in assay [3], in [4], in assay [5] and in [6] was 0% throughout. The inhibition at 10 µM in [7], in assay [8], in assay [13], in [9], in assay [10] and in assay [11] was 0% throughout. Also, the inhibition at 10 µM in [12] was determined as 0%.
For `c1ccc(COc2cccc(-c3ccnc4[nH]ccc34)c2)cc1` [Compound 9], the inhibition at 10 µM in assay [1], in [2], in assay [3], in [4], in assay [5] and in [6] was 0% throughout. Besides, the inhibition at 10 µM in [7], in assay [8], in [13], in assay [9], in assay [10] and in [11] was 0% in each case. For the same compound, the inhibition at 10 µM in assay [12] was determined as 0%.
In the case of `Fc1cccc(COc2ccc(Nc3ncnc4c3CN(CCN3CCOCC3)CC4)cc2Cl)c1` [Compound 6], the inhibition at 10 µM in assay [1], in [2], in assay [3], in assay [4], in assay [5] and in assay [6] was 0% throughout. The inhibition at 10 µM in [7] turned out to be 0%; in [8], 0%; in [13] it was 0%; in assay [9] it was 97.6%; in assay [10], 0%; in [11] it was 0%. The inhibition at 10 µM in assay [12] worked out at 0%.
As for `C[C@@H](Oc1cc(-c2cnc3ccccn23)sc1C(N)=O)c1ccccc1Cl` [Compound 8], the inhibition at 10 µM in assay [1], in [2], in [3], in [4], in assay [5] and in [6] was 0% each time. For the same compound, the inhibition at 10 µM worked out at 0% in assay [7]; 0% in [8]; 0% in assay [13]; 0% in assay [9]; 0% in assay [10]; 74.6% in [11]. Also, in assay [12], the inhibition at 10 µM was determined as 0%.
On to `CN1CCN(c2ccc(Nc3nccc(-c4cnn5ncccc45)n3)cc2C#N)CC1` [Compound 1], for which the inhibition at 10 µM amounted to 91.3% in assay [1]; 90.6% in [2]; 77% in [3]; 87.1% in assay [4]; 86% in assay [5]; 0% in assay [6]. For the same compound, the inhibition at 10 µM was 99.2% in [7]; 99.7% in assay [8]; 78.3% in assay [13]; 95.4% in assay [9]; 88.3% in assay [10]; 100% in assay [11]. For the same compound, in assay [12], the inhibition at 10 µM amounted to 0%.
On to `Cc1ccc(O)cc1N(C)c1ccnc(Nc2cccc(S(N)(=O)=O)c2)n1` [Compound 4], for which the inhibition at 10 µM in assay [1] is 0%; in [2] it was 100%; in [3], 100%; in assay [4] it was 87.7%; in assay [5], 0%; in [6], 94.5%. The inhibition at 10 µM in assay [7] came to 0%; in [8], 0%; in assay [13], 98.7%; in assay [9], 100%; in assay [10] it was 0%; in assay [11] it was 0%. Moreover, in [12], the inhibition at 10 µM was 78.6%.
`COc1ccc(Nc2nccc(-c3cnn4ncccc34)n2)cc1` [Compound 2]: the inhibition at 10 µM in assay [1] was found to be 0%; in assay [2], 0%; in [3], 0%; in assay [4], 90.2%; in assay [5], 0%; in assay [6], 0%. Moreover, the inhibition at 10 µM in assay [7] came to 0%; in assay [8] it was 81.1%; in assay [13], 80.9%; in assay [9], 0%; in assay [10] it was 0%; in [11], 97.1%. For the same compound, the inhibition at 10 µM in assay [12] came to 0%.
For `Nc1ncc2c(-c3ccncc3)c[nH]c2n1` [Compound 11], the inhibition at 10 µM in [1], in assay [2], in [3], in [4], in assay [5] and in [6] was 0% in each case. The inhibition at 10 µM in assay [7] came to 0%; in [8], 0%; in [13] it was 75.9%; in assay [9], 0%; in [10], 0%; in [11] it was 0%. Further, in assay [12], the inhibition at 10 µM was 0%.
